Measured values reported in patent EP0497314A1, “Use of azapirones in attention deficit hyperactivity disorder” (Bristol-Myers Squibb Company, priority 1991, dated 1992).
Counter-ions that a name gives are not always drawn. Marks after values point to notes of the source that are not given here.

Key:
[1] = test system: fronto-occipital cortex of the cat; experiment: Quantitative EEG, fronto-occipital cat cortex, subcutaneous administration; type: in vivo, cats; conditions: for group percent change in electrical energy from pre-drug control, Δ band / mean change ± S.E. in electrical energy from pre-drug control, Δ band / group percent change in electrical energy from pre-drug control, α band / mean change ± S.E. in electrical energy from pre-drug control, α band / group percent change in electrical energy from pre-drug control, β band / mean change ± S.E. in electrical energy from pre-drug control, β band / group percent change in electrical energy from pre-drug control, γ band / mean change ± S.E. in electrical energy from pre-drug control, γ band / group percent change in electrical energy from pre-drug control, θ band / mean change ± S.E. in electrical energy from pre-drug control, θ band: fronto-occipital cat cortex; for group percent change in electrical energy from pre-drug control, Δ band / mean change ± S.E. in electrical energy from pre-drug control, Δ band: Δ = 0.5-3.5 Hz; for group percent change in electrical energy from pre-drug control, α band / mean change ± S.E. in electrical energy from pre-drug control, α band: α= 7-13 Hz; for group percent change in electrical energy from pre-drug control, β band / mean change ± S.E. in electrical energy from pre-drug control, β band: β= 13-25 Hz; for group percent change in electrical energy from pre-drug control, γ band / mean change ± S.E. in electrical energy from pre-drug control, γ band: γ= 25-40 Hz; for group percent change in electrical energy from pre-drug control, θ band / mean change ± S.E. in electrical energy from pre-drug control, θ band: θ= 3.5-7.0 Hz
Method in brief: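 Adult female mongrel cats (n=6 per group) with implanted electrodes were recorded while held in restraining bags, with EEG filtered into Δ, ϑ, α, β and γ bands and integrated as energy counts. Drugs were given subcutaneously in saline, with doses calculated as free base, and recording started 30 min post-injection. Changes from each animal's pre-treatment control were tested by paired Student t-test (P≦0.05).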

[2] = test system: rabbit cortex; experiment: Quantitative EEG, rabbit cortex, intravenous administration; type: in vivo, rabbits; conditions: for group percent change in electrical energy from pre-drug control, Δ band / mean change ± S.E. in electrical energy from pre-drug control, Δ band: Δ = 0.5-3.5 Hz; for group percent change in electrical energy from pre-drug control, α band / mean change ± S.E. in electrical energy from pre-drug control, α band: α= 7-13 Hz; for group percent change in electrical energy from pre-drug control, β band / mean change ± S.E. in electrical energy from pre-drug control, β band: β= 13-25 Hz; for group percent change in electrical energy from pre-drug control, γ band / mean change ± S.E. in electrical energy from pre-drug control, γ band: γ= 25-40 Hz; for group percent change in electrical energy from pre-drug control, θ band / mean change ± S.E. in electrical energy from pre-drug control, θ band: θ= 3.5-7.0 Hz
Method in brief: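 Restrained rabbits with cortical leads had EEG split into Δ, ϑ, α, β and γ bands and integrated over 1 h from the moment of i.v. injection, in saline, dosed as free base. Counts were compared with each animal's own pretreatment control by paired t-test (p≦0.05). Doses were reduced geometrically to a no-effect level.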

[3] = rabbit cortex, 0.125 mg/kg free base i.v.
[4] = rabbit cortex, 0.25 mg/kg free base i.v.

Structure (SMILES): CSc1ccc2c(c1)N(CCC1CCCCN1C)c1ccccc1S2 (centres unmarked) [Thioridazine HCl, thioridazine]
- minimal effective dose ([1]; Felis catus, sc, fronto-occipital cat cortex EEG, dose of free base, read-out: the minimum dose required to produce the EEG profile characteristic of that particular drug): 1 mg/kg
- the no-effect dose ([1]; fronto-occipital cat cortex EEG, dose of free base): 0.5† mg/kg, s.c.
- group percent change in electrical energy from pre-drug control, Δ band ([1]; 0.5 mg/kg free base s.c.): +5%
- mean change ± S.E. in electrical energy from pre-drug control, Δ band ([1]; 0.5 mg/kg free base s.c.): +11 ± 21 instrument counts
- group percent change in electrical energy from pre-drug control, Δ band ([1]; 1.0 mg/kg free base s.c.): +19%
- mean change ± S.E. in electrical energy from pre-drug control, Δ band ([1]; 1.0 mg/kg free base s.c.): +38 ± 11 instrument counts
- group percent change in electrical energy from pre-drug control, Δ band ([1]; 8.0 mg/kg free base s.c.): +28%
- mean change ± S.E. in electrical energy from pre-drug control, Δ band ([1]; 8.0 mg/kg free base s.c.): +54 ± 8 instrument counts
- group percent change in electrical energy from pre-drug control, α band ([1]; 0.5 mg/kg free base s.c.): 0%
- mean change ± S.E. in electrical energy from pre-drug control, α band ([1]; 0.5 mg/kg free base s.c.): 0 ± 7 instrument counts
- group percent change in electrical energy from pre-drug control, α band ([1]; 1.0 mg/kg free base s.c.): +18%
- mean change ± S.E. in electrical energy from pre-drug control, α band ([1]; 1.0 mg/kg free base s.c.): +20 ± 5 instrument counts
- group percent change in electrical energy from pre-drug control, α band ([1]; 8.0 mg/kg free base s.c.): +26%
- mean change ± S.E. in electrical energy from pre-drug control, α band ([1]; 8.0 mg/kg free base s.c.): +25 ± 6 instrument counts
- group percent change in electrical energy from pre-drug control, β band ([1]; 0.5 mg/kg free base s.c.): -3%
- mean change ± S.E. in electrical energy from pre-drug control, β band ([1]; 0.5 mg/kg free base s.c.): -3 ± 3 instrument counts
- group percent change in electrical energy from pre-drug control, β band ([1]; 1.0 mg/kg free base s.c.): +3%
- mean change ± S.E. in electrical energy from pre-drug control, β band ([1]; 1.0 mg/kg free base s.c.): +3 ± 4 instrument counts
- group percent change in electrical energy from pre-drug control, β band ([1]; 8.0 mg/kg free base s.c.): -2%
- mean change ± S.E. in electrical energy from pre-drug control, β band ([1]; 8.0 mg/kg free base s.c.): -3 ± 4 instrument counts
- group percent change in electrical energy from pre-drug control, γ band ([1]; 0.5 mg/kg free base s.c.): -5%
- mean change ± S.E. in electrical energy from pre-drug control, γ band ([1]; 0.5 mg/kg free base s.c.): -3 ± 3 instrument counts
- group percent change in electrical energy from pre-drug control, γ band ([1]; 1.0 mg/kg free base s.c.): -11%
- mean change ± S.E. in electrical energy from pre-drug control, γ band ([1]; 1.0 mg/kg free base s.c.): -9 ± 4 instrument counts
- group percent change in electrical energy from pre-drug control, γ band ([1]; 8.0 mg/kg free base s.c.): -15%
- mean change ± S.E. in electrical energy from pre-drug control, γ band ([1]; 8.0 mg/kg free base s.c.): -12 ± 3 instrument counts
- group percent change in electrical energy from pre-drug control, θ band ([1]; 0.5 mg/kg free base s.c.): -1%
- mean change ± S.E. in electrical energy from pre-drug control, θ band ([1]; 0.5 mg/kg free base s.c.): -2 ± 8 instrument counts
- group percent change in electrical energy from pre-drug control, θ band ([1]; 1.0 mg/kg free base s.c.): +24%
- mean change ± S.E. in electrical energy from pre-drug control, θ band ([1]; 1.0 mg/kg free base s.c.): +29 ± 5 instrument counts
- group percent change in electrical energy from pre-drug control, θ band ([1]; 8.0 mg/kg free base s.c.): +30%
- mean change ± S.E. in electrical energy from pre-drug control, θ band ([1]; 8.0 mg/kg free base s.c.): +40 ± 6 instrument counts
- minimal effective dose ([2]; Oryctolagus cuniculus, iv, rabbit cortex EEG, dose of free base, read-out: the minimum dose required to produce the EEG profile characteristic of that particular drug): 0.25 mg/kg
- relative potency by comparing minimal doses required to elicit EEG profiles ([2]; rabbit cortex EEG, i.v.): approximately twice as potent as buspirone
- the no-effect dose ([2]; rabbit cortex EEG, dose of free base): 0.125† mg/kg, i.v.
- EEG profile ([2]; rabbit cortex, i.v.): completely different from that produced by stimulant drugs
- group percent change in electrical energy from pre-drug control, Δ band [2, 3]: +3%
- mean change ± S.E. in electrical energy from pre-drug control, Δ band [2, 3]: +11 ± 23 instrument counts
- group percent change in electrical energy from pre-drug control, Δ band [2, 4]: +69%
- mean change ± S.E. in electrical energy from pre-drug control, Δ band [2, 4]: +143 ± 11 instrument counts
- group percent change in electrical energy from pre-drug control, α band [2, 3]: 0%
- mean change ± S.E. in electrical energy from pre-drug control, α band [2, 3]: 0 ± 6 instrument counts
- group percent change in electrical energy from pre-drug control, α band [2, 4]: +34%
- mean change ± S.E. in electrical energy from pre-drug control, α band [2, 4]: +54 ± 2 instrument counts
- group percent change in electrical energy from pre-drug control, β band [2, 3]: +3%
- mean change ± S.E. in electrical energy from pre-drug control, β band [2, 3]: +5 ± 4 instrument counts
- group percent change in electrical energy from pre-drug control, β band [2, 4]: +35%
- mean change ± S.E. in electrical energy from pre-drug control, β band [2, 4]: +39 ± 4 instrument counts
- group percent change in electrical energy from pre-drug control, γ band [2, 3]: +1%
- mean change ± S.E. in electrical energy from pre-drug control, γ band [2, 3]: +1 ± 1 instrument counts
- group percent change in electrical energy from pre-drug control, γ band [2, 4]: +5%
- mean change ± S.E. in electrical energy from pre-drug control, γ band [2, 4]: +5 ± 1 instrument counts
- group percent change in electrical energy from pre-drug control, θ band [2, 3]: -5%
- mean change ± S.E. in electrical energy from pre-drug control, θ band [2, 3]: -13 ± 8 instrument counts
- group percent change in electrical energy from pre-drug control, θ band [2, 4]: +21%
- mean change ± S.E. in electrical energy from pre-drug control, θ band [2, 4]: +43 ± 4 instrument counts
